Data taken from US9938249B2, “Anti-amyloid compounds containing benzofurazan” (Treventis Corporation, priority 2014, dated 2018).

Molecular target: Terminally biotinylated beta-amyloid (Aβ42) (Homo sapiens, UniProt P05067)
Assay: Aβ42 biotinylated (biotin-AB) oligomerization assay, NeutrAvidin capture ELISA
Type: biochemical
Details: approximate value; 1 hr oligomerization at room temperature; read-out: IC50 Aβ 42-bio
Protocol: Aβ42 Biotinylated Assay Terminally biotinylated beta-amyloid (biotin-AB) was dissolved in HFIP at the concentration of 1 mg/ml and aliquoted to 50 μl/tube in 0.65 ml colored microfuge tubes (Fisher 02-681-248). The aliquots were diluted immediately by adding 450 μl of HFIP to 0.1 mg/ml. Approximately 46 ul (containing approximately 4.6 ug of biotin-AB) were taken from a tube, 100 ul of HFIP added, vortexed, and dried to a thin film under an N2 stream. 100 μl of trifluoroacetic acid (TFA) was added and vortexed. After 10 minute incubation at room temperature in a hood, resulting in disaggregation of seeds, the sample was vortexed again and dried again to a thin film under an N2 stream. 100 μl of HFIP was added, mixed, and the biotin-AB sample was dried for a third time under an N2 stream to remove residual TFA. The treated biotin-AB was dissolved in DMSO to a final peptide concentration of […] (SOX). An ELISA “capture” plate (Costar 9018) was coated with 50 μl of 1 μg/ml NeutrAvidin™ (NA) in 10 mM sodium phosphate buffer, pH 7.5. (NeutrAvidin can be prepared as 1 mg/ml (1000×) in milliQ water/10% glycerol and stored at −80° C. before use.) The plate was sealed plate with adhesive film and stored at 4° C. overnight, then blocked for 2 hours (unsealed) at room temperature with 200 μl/well OFB+0.1% v/v Tween 20. The “capture” plate was allowed to come to room temperature. Several dilutions of test compound were prepared with 100% DMSO, according to the desired concentration to be tested. 2.5 μl of diluted test compound was pipetted into the bottom of each well of a 96-well “dilution” polypropylene plate (Costar 3365), to which was added 250 ul of Oligomer Formation Buffer (OFB: 20 mM sodium phosphate, pH 7.5-150 mM NaCl). To begin oligomerization, 2 μl/well of the biotin-AB was added to the bottom of each well of a 96-well “reaction” polypropylene plate (Costar 3365) and 100 ul of each well of the “dilution” plate was transferred to the “reaction” plate (final concentration of DMSO being up to 1%). The reaction plate was sealed and incubated for 1 hr at room temperature without shaking. The reaction was then stopped by the addition of 50 ul of 0.3% Tween 20 in water. The “capture” plate blocking solution was removed, and 50 ul of each well of the “reaction” plate was transferred to each well of the “capture” plate. The “capture” plate was sealed and incubated for 2 hours at room temperature with shaking at 150 rpm. The “capture” plate was then washed on a plate washer (3×) with 200 ul/well TBST (20 mM Tris-HCL, pH 7.5/150 mM NaCl/0.1% Tween 20). 50 ul of Streptavidin-horseradish […] (1:20,000 dilution) in OFB+0.1% Tween 20 was added to each well, the “capture” plate was sealed and incubated for 1 hr with shaking at 150 rpm. As before, the plate was washed, then 100 ul of TMB/H2O2 substrate solution was added to each well. After 5-10 minutes, 100 ul of 1% v/v sulfuric acid was added and the absorbance of each well was read at 450 nm using a standard plate reader. Data is summarized in the table below; numbers given in parenthesis for the Aβ 40 Thioflavin T assays are the values in that particular experiment for compound ID 1027, given as the first entry in this table for structural comparison. “IC50 Aβ42-bio” column refers to the approximate value of the Aβ42 biotinylated assay IC50 in micromoles/L.

Chain of Terminally biotinylated beta-amyloid (Aβ42) (P05067 672-713, species assumed): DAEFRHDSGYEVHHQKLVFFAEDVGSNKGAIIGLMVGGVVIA

Structure (SMILES)	IC50
OC1(c2ccc(-c3cc(N4CCC(N5CCOCC5)C4)c4nonc4c3)cc2)COC1 (centres unmarked) [compound 1719]	13 µM
COc1ccc(-c2cc(N3CC(CN4CCOCC4)C3)c3nonc3c2)cn1 [compound 1670, 6-(6-methoxypyridin-3-yl)-4-(3-(morpholinomethyl)azetidin-1-yl) benzo[c][1,2,5]oxadiazole]	11.2 µM
OCc1cc(N2CC(CN3CCOCC3)C2)c2nonc2c1 [compound 1571, (7-(3-(morpholinomethyl)azetidin-1-yl)benzo[c][1,2,5]oxadiazol-5-yl)methanol]	> 20 µM
OC(c1cc(-c2cc(N3CC(CN4CCOCC4)C3)c3nonc3c2)cs1)C(F)(F)F (centres unmarked) [compound 1568, 2,2,2-trifluoro-1-(4-(7-(3-(morpholinomethyl)azetidin-1-yl)benzo[c][1,2,5]oxadiazol-5-yl)thiophen-2-yl) ethan-1-ol]	5.5 µM
OC(c1cccnc1-c1cc(N2CC(CN3CCCC3)C2)c2nonc2c1)C(F)(F)F (centres unmarked) [compound 1564, 2,2,2-trifluoro-1-(2-(7-(3-(pyrrolidin-1-ylmethyl)azetidin-1-yl)benzo[c][1,2,5]oxadiazol-5-yl)pyridin-3-yl) ethan-1-ol]	6 µM
c1ccc(-c2cc(N3CC(CN4CCCC4)C3)c3nonc3c2)nc1 [compound 1580, 6-(Pyridin-2-yl)-4-(3-(pyrrolidin-1-ylmethyl)azetidin-1-yl)benzo[c][1,2,5]oxadiazole]	> 20 µM
OC(c1ccc(-c2cc(N3CC(CN4CCCC4)C3)c3nonc3c2)nc1)C(F)(F)F (centres unmarked) [compound 1545]	8.4 µM
NC(=O)c1ccc(-c2cc(N3CC(CN4CCCC4)C3)c3nonc3c2)cc1 [compound 1579, 4-(7-(3-(pyrrolidin-1-ylmethyl)azetidin-1-yl)benzo[c][1,2,5]oxadiazol-5-yl)benzamide]	96 µM
CSc1cc(N2CC(CN3CCOCC3)C2)c2nonc2c1 [compound 1612, 6-(methylthio)-4-(3-(morpholinomethyl)azetidin-1-yl) benzo[c][1,2,5]oxadiazole]	> 20 µM
COc1cc(-c2cc(N3CC(CN4CCOCC4)C3)c3nonc3c2)ccc1C1CC1 [compound 1660, 6-(4-cyclopropyl-3-methoxyphenyl)-4-(3-(morpholinomethyl)azetidin-1-yl) benzo[c][1,2,5]oxadiazole]	3.9 µM
OC(c1nc(-c2cc(N3CC(CN4CCCC4)C3)c3nonc3c2)cs1)C(F)(F)F (centres unmarked) [compound 1567]	26.9 µM
OC(c1cnc(-c2cc(N3CC(CN4CCOCC4)C3)c3nonc3c2)s1)C(F)(F)F (centres unmarked) [compound 1625]	4.2 µM
OCc1cnc(-c2cc(N3CC(CN4CCOCC4)C3)c3nonc3c2)o1 [compound 1607, (2-(7-(3-(morpholinomethyl)azetidin-1-yl)benzo[c][1,2,5]oxadiazol-5-yl)oxazol-5-yl)methanol]	> 20 µM
OCc1csc(-c2cc(N3CC(CN4CCOCC4)C3)c3nonc3c2)n1 [compound 1565]	> 20 µM
NC(=O)c1ccc(-c2cc(N3CC(CN4CCOCC4)C3)c3nonc3c2)cc1 [compound 1610, 4-(7-(3-(morpholinomethyl)azetidin-1-yl)benzo[c][1,2,5]oxadiazol-5-yl)benzamide]	> 20 µM
N#Cc1ccccc1-c1cc(N2CC(CN3CCOCC3)C2)c2nonc2c1 [compound 1586, 2-(7-(3-(morpholinomethyl)azetidin-1-yl)benzo[c][1,2,5]oxadiazol-5-yl)benzonitrile]	41.9 µM

Second part, the molecule after the results:

IC50	Structure (SMILES)
> 20 µM	OC(c1cccnc1-c1cc(N2CC(CN3CCOCC3)C2)c2nonc2c1)C(F)(F)F (centres unmarked) [compound 1563, 2,2,2-trifluoro-1-(2-(7-(3-(morpholinomethyl)azetidin-1-yl)benzo[c][1,2,5]oxadiazol-5-yl)pyridin-3-yl)ethan-1-ol]
30.2 µM	Fc1cc(F)cc(-c2cc(N3CC(CN4CCOCC4)C3)c3nonc3c2)c1 [compound 1588, 6-(3,5-difluorophenyl)-4-(3-(morpholinomethyl)azetidin-1-yl) benzo[c][1,2,5]oxadiazole]
6.9 µM	c1nc(-c2cc(N3CC(CN4CCCC4)C3)c3nonc3c2)cs1 [compound 1561]
2.4 µM	NC(=O)c1cccc(-c2cc(N3CC(CN4CCCC4)C3)c3nonc3c2)c1 [compound 1609, 3-(7-(3-(pyrrolidin-1-ylmethyl)azetidin-1-yl)benzo[c][1,2,5]oxadiazol-5-yl)benzamide]
> 20 µM	OCc1coc(-c2cc(N3CC(CN4CCOCC4)C3)c3nonc3c2)n1 [compound 1606, (2-(7-(3-(morpholinomethyl)azetidin-1-yl)benzo[c][1,2,5]oxadiazol-5-yl)oxazol-4-yl)methanol]
16.5 µM	N#Cc1ccc(-c2cc(N3CC(CN4CCOCC4)C3)c3nonc3c2)cc1 [compound 1574, 4-(7-(3-(morpholinomethyl)azetidin-1-yl)benzo[c][1,2,5]oxadiazol-5-yl)benzonitrile]
5 µM	CC(=O)N1CCCCC1c1cc(N2CC(CN3CCCC3)C2)c2nonc2c1 (centres unmarked) [compound 1555]
8.3 µM	CS(=O)(=O)N1CCCCC1c1cc(N2CC(CN3CCCC3)C2)c2nonc2c1 (centres unmarked) [compound 1554]
12.3 µM	OC(c1ccnc(-c2cc(N3CC(CN4CCCC4)C3)c3nonc3c2)c1)C(F)(F)F (centres unmarked) [compound 1587, 2,2,2-trifluoro-1-(2-(7-(3-(pyrrolidin-1-ylmethyl)azetidin-1-yl)benzo[c][1,2,5]oxadiazol-5-yl)pyridin-4-yl)ethan-1-ol]
5.8 µM	OC(c1ccc(-c2cc(N3CC(CN4CCOCC4)C3)c3nonc3c2)nc1)C(F)(F)F (centres unmarked) [compound 1622, 2,2,2-trifluoro-1-(6-(7-(3-(morpholinomethyl)azetidin-1-yl)benzo[c][1,2,5]oxadiazol-5-yl)pyridin-3-yl)ethan-1-ol]
